Reference: patent US10058598B2, “Peptides and combination of peptides for use in immunotherapy against various cancers” (immatics biotechnologies GmbH, priority 2015, dated 2018)

Legend:
[1] = test system: CD8+ T cells of healthy HLA-A*02+ donors; assay: In vitro immunogenicity: T-cell priming with aAPCs loaded with HLA-A*02/peptide complexes and anti-CD28, pMHC multimer readout; type: cell-based, human; conditions: for Wells positive [%]: in vitro immunogenicity, HLA-A*02 peptides (SEQ ID No 1-251), pMHC multimer readout
Excerpt: FIGS. 4A to 4D show exemplary results of peptide-specific in vitro CD8+ T cell responses of a healthy HLA-A*02+ donor. CD8+ T cells were primed using artificial APCs coated with anti-CD28 mAb and HLA-A*02 in complex with SeqID No 27 peptide (FIG. 4A, left panel), SeqID No 229 peptide (FIG. 4B, left panel), SeqID No 230 peptide (FIG. 4C, left panel) and SeqID No 235 peptide (FIG. 4D, left panel), respectively. After three cycles of stimulation, the detection of peptide-reactive cells was performed by 2D multimer staining with A*02/SeqID No 27 (FIG. 4A), A*02/SeqID No 229 (FIG. 4B), A*02/SeqID No 230 (FIG. 4C) or A*02/SeqID No 235 (FIG. 4D). Right panels (FIGS. 4A, 4B, 4C and 4D) show control staining of cells stimulated with irrelevant A*02/peptide complexes. Viable singlet cells were gated for CD8+ lymphocytes. Boolean gates helped excluding false-positive events detected with multimers specific for different peptides. Frequencies of specific multimer+ cells among CD8+ lymphocytes are indicated.
In order to obtain information regarding the immunogenicity of the TUMAPs of the present invention, the inventors performed investigations using an in vitro T-cell priming assay based on repeated stimulations of CD8+ T cells with artificial antigen presenting cells (aAPCs) loaded with peptide/MHC complexes and anti-CD28 antibody.
In order to perform in vitro stimulations by artificial antigen presenting cells loaded with peptide-MHC complex (pMHC) and anti-CD28 antibody, the inventors first isolated CD8+ T cells from fresh HLA-A*02 leukapheresis products via positive selection using CD8 microbeads (Miltenyi Biotec, Bergisch-Gladbach, Germany) of healthy donors obtained from the University clinics Mannheim, Germany, after informed consent.
PBMCs and isolated CD8+ lymphocytes were incubated in T-cell medium (TCM) until use consisting of RPMI-Glutamax (Invitrogen, Karlsruhe, Germany) supplemented with 10% heat inactivated human AB serum (PAN-Biotech, Aidenbach, Germany), 100 U/ml Penicillin/100 μg/ml Streptomycin (Cambrex, Cologne, Germany), 1 mM sodium pyruvate (CC Pro, Oberdorla, Germany), 20 μg/ml Gentamycin (Cambrex). 2.5 ng/ml IL-7 (PromoCell, Heidelberg, Germany) and 10 U/ml IL-2 (Novartis Pharma, Nurnberg, Germany) were also added to the TCM at this step.
Generation of pMHC/anti-CD28 coated beads, T-cell stimulations and readout was performed in a highly defined in vitro system using four different pMHC molecules per stimulation condition and 8 different pMHC molecules per readout condition.
The purified co-stimulatory mouse IgG2a anti human CD28 Ab 9.3 (Jung et al., 1987) was chemically biotinylated using Sulfo-N-hydroxysuccinimidobiotin as recommended by the manufacturer (Perbio, Bonn, Germany). Beads used were 5.6 μm diameter streptavidin coated polystyrene particles (Bangs Laboratories, IIIinois, USA).
pMHC used for positive and negative control stimulations were A*0201/MLA-001 (peptide […] (SEQ ID NO. 303) from modified Melan-A/MART-1) and A*0201/DDX5-001 ([…] from DDX5, SEQ ID NO. 304), respectively.
800.000 beads/200 μl were coated in 96-well plates in the presence of 4×12.5 ng different biotin-pMHC, washed and 600 ng biotin anti-CD28 were added subsequently in a volume of 200 μl. Stimulations were initiated in 96-well plates by co-incubating […] CD8+ T cells with 2×10^5 washed coated beads in 200 μl TCM supplemented with 5 ng/ml IL-12 (PromoCell) for 3 days at 37° C. Half of the medium was then exchanged by fresh TCM supplemented with 80 U/ml IL-2 and incubating was continued for 4 days at 37° C. This stimulation cycle was performed for a total of three times. For the pMHC multimer readout using 8 different pMHC molecules per condition, a two-dimensional combinatorial coding approach was used as previously described (Andersen et al., 2012) with minor modifications encompassing coupling to 5 different fluorochromes. […]

HLA-A*02 = assay: MHC binding assay: UV-ligand exchange and beta2m ELISA, peptide exchange yield; design: species or system human; conditions: binding to HLA-A*02, UV-ligand exchange, β2m ELISA
Excerpt: Candidate peptides for T cell based therapies according to the present invention were further tested for their MHC binding capacity (affinity). The individual peptide-MHC complexes were produced by UV-ligand exchange, where a UV-sensitive peptide is cleaved upon UV-irradiation, and exchanged with the peptide of interest as analyzed. Only peptide candidates that can effectively bind and stabilize the peptide-receptive MHC molecules prevent dissociation of the MHC complexes. To determine the yield of the exchange reaction, an ELISA was performed based on the detection of the light chain (β2m) of stabilized MHC complexes. The assay was performed as generally described in Rodenko et al. (Rodenko et al., 2006).
96 well MAXISorp plates (NUNC) were coated over night with 2 ug/ml streptavidin in PBS at room temperature, washed 4× and blocked forl h at 37° C. in 2% BSA containing blocking buffer. Refolded HLA-A*02:01/MLA-001 monomers served as standards, covering the range of 15-500 ng/ml. Peptide-MHC monomers of the UV-exchange reaction were diluted 100 fold in blocking buffer. Samples were incubated for 1 h at 37° C., washed four times, incubated with 2 ug/ml HRP conjugated anti-β2m for 1 h at 37° C., washed again and detected with TMB solution that is stopped with […]. Absorption was measured at 450 nm. Candidate peptides that show a high exchange yield (preferably higher than 50%, most preferred higher than 75%) are generally preferred for a generation and production of antibodies or fragments thereof, and/or T cell receptors or fragments thereof, as they show sufficient avidity to the MHC molecules and prevent dissociation of the MHC complexes.

| Substance | Wells positive [%] [1] | Peptide exchange (HLA-A*02) | in vitro immunogenicity, Wells ([1]; HLA-A*02 peptides, share of positive wells) |
| --- | --- | --- | --- |
| 4 (KLMPGTYTL; listed as Homo sapiens) [compound 4] | + (<20% = +) | ++++ (> = 75% = ++++) |  |
| 249 (GLCERLVSL; listed as Homo sapiens) [compound 249] | + (<20% = +) | ++++ (> = 75% = ++++) |  |
| 12 (GLLPLLHRA; listed as Homo sapiens) [compound 12] | ++++ (> = 70% = ++++) | ++++ (> = 75% = ++++) |  |
| 293 (FLVDGSWSI; listed as Homo sapiens) [compound 293] |  |  | + (<20% = +) |
